Test results taken from patent US10221177B2 (HYDRA BIOSCIENCES, INC., priority 2014, dated 2019).

Molecular target: human TRPA1 (Homo sapiens (Human), UniProt O75762)
Assay: In vitro inhibition of human TRPA1, whole cell patch configuration
Assay type: cell-based
Conditions: current activation 10 μM AITC, tested concentrations 320 pM to 3.2 μM, read-out: hTRPA1 IC50
Outline: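 Whole-cell patch clamp, bath 150 mM NaCl, 10 mM HEPES, 1 mM EGTA, 3 mM MgCl2, pH 7.4 (sometimes 2 mM CaCl2, 1 mM MgCl2). Currents recorded continuously at −60 mV or by 400 ms ramps from −40 mV holding every 4 s; inward/outward currents taken at −80/80 mV, with controlled-temperature focal perfusion.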

human TRPA1, sequence (O75762 whole entry): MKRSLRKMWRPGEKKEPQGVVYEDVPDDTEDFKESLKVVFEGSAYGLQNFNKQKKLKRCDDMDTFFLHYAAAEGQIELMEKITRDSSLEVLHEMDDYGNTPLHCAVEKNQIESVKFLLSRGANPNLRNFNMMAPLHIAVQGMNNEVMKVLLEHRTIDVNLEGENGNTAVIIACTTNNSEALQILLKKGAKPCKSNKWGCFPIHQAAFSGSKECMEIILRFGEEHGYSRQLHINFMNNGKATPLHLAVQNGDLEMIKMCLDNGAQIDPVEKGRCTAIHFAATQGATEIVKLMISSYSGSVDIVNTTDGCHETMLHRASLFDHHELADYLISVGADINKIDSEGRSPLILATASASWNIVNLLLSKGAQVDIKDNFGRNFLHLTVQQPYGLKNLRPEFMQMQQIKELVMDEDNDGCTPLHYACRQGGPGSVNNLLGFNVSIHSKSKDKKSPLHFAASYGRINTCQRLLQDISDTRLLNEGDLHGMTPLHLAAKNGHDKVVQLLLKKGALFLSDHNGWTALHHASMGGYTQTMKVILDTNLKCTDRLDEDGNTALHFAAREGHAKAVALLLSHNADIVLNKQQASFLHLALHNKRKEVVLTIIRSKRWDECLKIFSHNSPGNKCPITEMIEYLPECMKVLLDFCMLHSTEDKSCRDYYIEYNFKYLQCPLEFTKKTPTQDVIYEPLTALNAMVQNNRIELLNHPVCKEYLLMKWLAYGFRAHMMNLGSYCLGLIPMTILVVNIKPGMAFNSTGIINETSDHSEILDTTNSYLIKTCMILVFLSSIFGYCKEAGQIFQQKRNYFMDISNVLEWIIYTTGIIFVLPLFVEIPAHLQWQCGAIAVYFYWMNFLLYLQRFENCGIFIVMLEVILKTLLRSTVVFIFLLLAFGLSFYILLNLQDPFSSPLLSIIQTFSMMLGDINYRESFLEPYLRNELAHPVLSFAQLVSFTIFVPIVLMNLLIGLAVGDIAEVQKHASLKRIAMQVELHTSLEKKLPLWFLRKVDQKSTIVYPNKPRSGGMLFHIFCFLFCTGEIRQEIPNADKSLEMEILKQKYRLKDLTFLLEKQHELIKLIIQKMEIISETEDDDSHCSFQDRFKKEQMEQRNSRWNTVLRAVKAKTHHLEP

SMILES | IC50
COc1cc(NC(=O)Cn2cnc3c2c(=O)n(Cc2cc(C)on2)c(=O)n3C)nc(C(F)(F)F)c1 [Compound 204, N-(4-methoxy-6-(trifluoromethyl)pyridin-2-yl)-2-(3-methyl-1-((5-methylisoxazol-3-yl)methyl)-2,6-dioxo-2,3-dihydro-1H-purin-7(6H)-yl)acetamide] | 3.25 µM
CCN(c1ccc(NC(=O)Cn2cnc3c2c(=O)n(Cc2cc(C)on2)c(=O)n3C)cc1)C(F)(F)F [Compound 211, N-(4-(ethyl(trifluoromethyl)amino)phenyl)-2-(3-methyl-1-((5-methylisoxazol-3-yl)methyl)-2,6-dioxo-2,3-dihydro-1H-purin-7(6H)-yl)acetamide] | > 1 µM
Cc1cc(Cn2c(=O)c3c(ncn3CC(=O)Nc3cccc(N4CC5CC5C4)n3)n(C)c2=O)no1 (stereo not drawn) [Compound 212, N-(6-(3-azabicyclo[3.1.0]hexan-3-yl)pyridin-2-yl)-2-(3-methyl-1-((5-methylisoxazol-3-yl)methyl)-2,6-dioxo-2,3-dihydro-1H-purin-7(6H)-yl)acetamide] | 0.062 µM
Cc1cc(Cn2c(=O)c3c(ncn3CC(=O)Nc3cccc(N4CC5C(C4)C5(F)F)n3)n(C)c2=O)no1 (stereo not drawn) [Compound 213, N-(6-(6,6-difluoro-3-azabicyclo[3.1.0]hexan-3-yl)pyridin-2-yl)-2-(3-methyl-1-((5-methylisoxazol-3-yl)methyl)-2,6-dioxo-2,3-dihydro-1H-purin-7(6H)-yl)acetamide] | 0.141 µM
Cc1cc(Cn2c(=O)c3c(ncn3CC(=O)Nc3cccc(N4CCN(CC(F)(F)F)CC4)n3)n(C)c2=O)no1 [Compound 214, 2-(3-methyl-1-((5-methylisoxazol-3-yl)methyl)-2,6-dioxo-2,3-dihydro-1H-purin-7(6H)-yl)-N-(6-(4-(2,2,2-trifluoroethyl)piperazin-1-yl)pyridin-2-yl)acetamide] | 0.092 µM
Cc1cc(Cn2c(=O)c3c(ncn3CC(=O)Nc3cccc(-c4ccc(C(F)(F)F)nc4)n3)n(C)c2=O)no1 [Compound 215, 2-(3-methyl-1-((5-methylisoxazol-3-yl)methyl)-2,6-dioxo-2,3-dihydro-1H-purin-7(6H)-yl)-N-(6′-(trifluoromethyl)-2,3′-bipyridin-6-yl)acetamide] | 0.025 µM
CC(=O)Cn1c(=O)c2c(ncn2CC(=O)Nc2csc(-c3cnc(C(F)(F)F)c(C)c3)n2)n(C)c1=O [Compound 216, 2-(3-methyl-2,6-dioxo-1-(2-oxopropyl)-2,3-dihydro-1H-purin-7(6H)-yl)-N-(2-(5-methyl-6-(trifluoromethyl)pyridin-3-yl)thiazol-4-yl)acetamide] | 0.016 µM
Cc1cc(Cn2c(=O)c3c(ncn3CC(=O)Nc3csc(-c4cnc(C(F)(F)F)c(C)c4)n3)n(C)c2=O)no1 [Compound 217, 2-(3-methyl-1-((5-methylisoxazol-3-yl)methyl)-2,6-dioxo-2,3-dihydro-1H-purin-7(6H)-yl)-N-(2-(5-methyl-6-(trifluoromethyl)pyridin-3-yl)thiazol-4-yl)acetamide] | 0.003 µM
Cc1cc(Cn2c(=O)c3c(ncn3CC(=O)Nc3cccc(N4CCC(C(C)(C)F)CC4)n3)n(C)c2=O)no1 [Compound 219, N-(6-(4-(2-fluoropropan-2-yl)piperidin-1-yl)pyridin-2-yl)-2-(3-methyl-1-((5-methylisoxazol-3-yl)methyl)-2,6-dioxo-2,3-dihydro-1H-purin-7(6H)-yl)acetamide] | 0.023 µM
Cc1cc(Cn2c(=O)c3c(ncn3CC(=O)Nc3ccc(N4CCC(C(C)(C)F)CC4)cn3)n(C)c2=O)no1 [Compound 220, N-(5-(4-(2-fluoropropan-2-yl)piperidin-1-yl)pyridin-2-yl)-2-(3-methyl-1-((5-methylisoxazol-3-yl)methyl)-2,6-dioxo-2,3-dihydro-1H-purin-7(6H)-yl)acetamide] | 0.072 µM
Cc1cc(Cn2c(=O)c3c(ncn3CC(=O)Nc3cccc(-c4cnc(C(F)(F)F)c(C)c4)n3)n(C)c2=O)no1 [Compound 221, 2-(3-methyl-1-((5-methylisoxazol-3-yl)methyl)-2,6-dioxo-2,3-dihydro-1H-purin-7(6H)-yl)-N-(5′-methyl-6′-(trifluoromethyl)-[2,3′-bipyridin]-6-yl)acetamide] | 0.005 µM
Cc1noc(Cn2c(=O)c3c(ncn3CC(=O)Nc3cccc(-c4cnc(C(F)(F)F)c(C)c4)n3)n(C)c2=O)n1 [Compound 222, 2-(3-methyl-1-((3-methyl-1,2,4-oxadiazol-5-yl)methyl)-2,6-dioxo-2,3-dihydro-1H-purin-7(6H)-yl)-N-(5′-methyl-6′-(trifluoromethyl)-[2,3′-bipyridin]-6-yl)acetamide] | 0.005 µM
Cc1nc(Cn2c(=O)c3c(ncn3CC(=O)Nc3cccc(-c4cnc(C(F)(F)F)c(C)c4)n3)n(C)c2=O)no1 [Compound 223, 2-(3-methyl-1-((5-methyl-1,2,4-oxadiazol-3-yl)methyl)-2,6-dioxo-2,3-dihydro-1H-purin-7(6H)-yl)-N-(5′-methyl-6′-(trifluoromethyl)-[2,3′-bipyridin]-6-yl)acetamide] | 0.025 µM
Cc1cc(-c2cccc(NC(=O)Cn3cnc4c3c(=O)n(Cc3ccon3)c(=O)n4C)n2)cnc1C(F)(F)F [Compound 224, 2-(1-(isoxazol-3-ylmethyl)-3-methyl-2,6-dioxo-2,3-dihydro-1H-purin-7(6H)-yl)-N-(5′-methyl-6′-(trifluoromethyl)-[2,3′-bipyridin]-6-yl)acetamide] | 0.019 µM
Cc1cc(Cn2c(=O)c3c(ncn3CC(=O)Nc3cccc(-c4cnc(C(F)(F)F)c(C)c4)n3)n(C)c2=O)on1 [Compound 225, 2-(3-methyl-1-((3-methylisoxazol-5-yl)methyl)-2,6-dioxo-2,3-dihydro-1H-purin-7(6H)-yl)-N-(5′-methyl-6′-(trifluoromethyl)-[2,3′-bipyridin]-6-yl)acetamide] | 0.049 µM
CCC(=O)Cn1c(=O)c2c(ncn2CC(=O)Nc2cccc(-c3cnc(C(F)(F)F)c(C)c3)n2)n(C)c1=O [Compound 226, 2-(3-methyl-2,6-dioxo-1-(2-oxobutyl)-2,3-dihydro-1H-purin-7(6H)-yl)-N-(5′-methyl-6′-(trifluoromethyl)-[2,3′-bipyridin]-6-yl)acetamide] | 0.008 µM
CC(=O)Cn1c(=O)c2c(ncn2CC(=O)Nc2cccc(-c3cnc(C(F)(F)F)c(C)c3)n2)n(C)c1=O [Compound 227, 2-(3-methyl-2,6-dioxo-1-(2-oxopropyl)-2,3-dihydro-1H-purin-7(6H)-yl)-N-(5′-methyl-6′-(trifluoromethyl)-[2,3′-bipyridin]-6-yl)acetamide] | 0.022 µM
Cc1cc(Cn2c(=O)c3c(ncn3CC(=O)Nc3cccc(-c4cnc(C)c(F)c4)n3)n(C)c2=O)no1 [Compound 228, N-(5′-fluoro-6′-methyl-[2,3′-bipyridin]-6-yl)-2-(3-methyl-1-((5-methylisoxazol-3-yl)methyl)-2,6-dioxo-2,3-dihydro-1H-purin-7(6H)-yl)acetamide] | 0.017 µM
CC(=O)Cn1c(=O)c2c(ncn2CC(=O)Nc2cccc(-c3cnc(C)c(C(F)(F)F)c3)n2)n(C)c1=O [Compound 234, 2-(3-methyl-2,6-dioxo-1-(2-oxopropyl)2,3-dihydro-1H-purin-7(6H)-yl)-N-(6′-methyl-5′-(trifluoromethyl)-[2,3′-bipyridin]-6-yl)acetamide] | 0.004 µM

Second part, the molecule after the results:

IC50 | SMILES
0.009 µM | Cc1cc(Cn2c(=O)c3c(ncn3CC(=O)Nc3cncc(-c4cnc(C(F)(F)F)c(C)c4)n3)n(C)c2=O)no1 [Compound 229, 2-(3-methyl-1-((5-methylisoxazol-3-yl)methyl)-2,6-dioxo-2,3-dihydro-1H-purin-7(6H)-yl)-N-(6-(5-methyl-6-(trifluoromethyl)pyridin-3-yl)pyrazin-2-yl)acetamide]
0.014 µM | Cc1noc(Cn2c(=O)c3c(ncn3CC(=O)Nc3cncc(-c4cnc(C(F)(F)F)c(C)c4)n3)n(C)c2=O)n1 [Compound 230, 2-(3-methyl-1-((3-methyl-1,2,4-oxadiazol-5-yl)methyl)-2,6-dioxo-2,3-dihydro-1H-purin-7(6H)-yl)-N-(6-(5-methyl-6-(trifluoromethyl)pyridin-3-yl)pyrazin-2-yl)acetamide]
0.016 µM | Cc1noc(Cn2c(=O)c3c(ncn3CC(=O)Nc3cccc(-c4cnc(C)c(F)c4)n3)n(C)c2=O)n1 [Compound 231, N-(5′-fluoro-6′-methyl-[2,3′-bipyridin]-6-yl)-2-(3-methyl-1-((3-methyl-1,2,4-oxadiazol-5-yl)methyl)-2,6-dioxo-2,3-dihydro-1H-purin-7(6H)-yl)acetamide]
0.056 µM | CC(=O)Cn1c(=O)c2c(ncn2CC(=O)Nc2cncc(-c3cnc(C(F)(F)F)c(C)c3)n2)n(C)c1=O [Compound 232, 2-(3-methyl-2,6-dioxo-1-(2-oxopropyl)-2,3-dihydro-1H-purin-7(6H)-yl)-N-(6-(5-methyl-6-(trifluoromethyl)pyridin-3-yl)pyrazin-2-yl)acetamide]
0.01 µM | CCC(=O)Cn1c(=O)c2c(ncn2CC(=O)Nc2cncc(-c3cnc(C(F)(F)F)c(C)c3)n2)n(C)c1=O [Compound 233, 2-(3-methyl-2,6-dioxo-1-(2-oxobutyl)-2,3-dihydro-1H-purin-7(6H)-yl)-N-(6-(5-methyl-6-(trifluoromethyl)pyridin-3-yl)pyrazin-2-yl)acetamide]
0.002 µM | CCC(=O)Cn1c(=O)c2c(ncn2CC(=O)Nc2cccc(-c3cnc(C)c(C(F)(F)F)c3)n2)n(C)c1=O [Compound 235, 2-(3-methyl-2,6-dioxo-1-(2-oxobutyl)-2,3-dihydro-1H-purin-7(6H)-yl)-N-(6′-methyl-5′-(trifluoromethyl)-[2,3′-bipyridin]-6-yl)acetamide]
0.711 µM | Cc1ncc(-c2cccc(NC(=O)Cn3cnc4c3c(=O)n(CCCO)c(=O)n4C)n2)cc1C(F)(F)F [Compound 236, 2-(1-(3-hydroxypropyl)-3-methyl-2,6-dioxo-2,3-dihydro-1H-purin-7(6H)-yl)-N-(6′-methyl-5′-(trifluoromethyl)-[2,3′-bipyridin]-6-yl)acetamide]
0.236 µM | Cc1ncc(-c2cccc(NC(=O)Cn3cnc4c3c(=O)n(CCO)c(=O)n4C)n2)cc1C(F)(F)F [Compound 237]
